System: hESC-derived retinal progenitor cells
Experiment: Differentiation of hESC-derived retinal progenitor cells into photoreceptor cells with substitutes for Wnt3a or Shh; positive rates of retinal cell markers by immunochemical staining
Format: cell-based, human
Details: Mean ± S.E.M., sample size 3
Description: The eye field precursors (floating aggregates) were cultured in 8-well poly-D-lysine/laminin-coated slides (BD Biosciences, Bedford, Mass.) under the same conditions that were used for differentiation into the retinal progenitor cells, the neural retinal progenitor cells, the photoreceptor cell precursors and the photoreceptor cells.
After being blocked for 90 min, the slides in each differentiation step were incubated overnight at 4° C. with the following antibodies specific for cells of each differentiation step: rabbit-Blue-opsin (1:500, Chemicon), sheep-Chx10 (1:100, Chemicon), rabbit-Crx (1:200, Santa Cruz Biotechnology, Santa Cruz, Calif., USA), rabbit-GFAP (1:200, Invitrogen), mouse-human specific mitochondria (1:50, Chemicon), rabbit-human specific mitochondria (1:200, Chemicon), mouse-Islet1 (1:10, Developmental Studies Hydroma Bank, DSHB; Iowa City, Iowa, USA), mouse-Ki67 (1:100, Vector Laboratories, Peterborough, England), mouse-Mitf (1:1,000, abcam, Cambridge, Mass., USA), mouse-nestin (1:250, BD Sciences), rabbit-neurofilament-200 (1:1,000, Sigma-Aldrich), rabbit-Otx2 (1:100, abcam), rabbit-Pax2 (1:250, abcam), mouse-Pax6 (1:2, DSHB), mouse-peripherin2 (1:500, GenScript, Piscataway, N.J., USA), rabbit-Rax (1:250, abcam), rabbit-recoverin (1:1,000, Chemicon), retinal pigment epithelium 65 (RPE65, 1:100, Chemicon), rabbit-rhodopsin (1:500, Sigma-Aldrich), mouse-rhodopsin (1:500, Ret-P1, Lab Vision, Fremont, Calif., USA), mouse-rhodopsin (1:2,000, Ret-P1, Sigma-Aldrich), mouse-rom1 (1:50, ABR-Affinity Bioreagents, Golden, Colo., USA), rabbit-PDE6 beta (1:100, abcam), rabbit-phosducin (1:500, Santa Cruz Biotechnology), mouse-PKC-alpha (1:500, Sigma-Aldrich), mouse-Prox1 (1:2,000, Chemicon), mouse-Sox2 (1:250, R&D Systems), rabbit-synaptophysin (1:2,000, Santa Cruz Biotechnology), and rabbit-ZO-1 (1:100, Zymed-Invitrogen).
The cells cultured on the slides in each step were washed three times for 5 min with PBS and incubated at room temperature for 2 hrs with species-specific secondary antibody conjugated with Cy3 (1:800, Jackson Immunoresearch Laboratory) or Alexa488 (1:500, Invitrogen). A standard material suitable for the primary and the secondary antibody was used to examine non-specific staining or interaction between the antibodies. Afterwards, the cells were washed three times for 5 min with PBS, counterstained with DAPI (4,6-diamidino-2 phenylindole) and mounted in Vectashield (Vector Laboratories), followed by visualization under an epifluorescence microscope (Nikon Eclipse, E800, Tokyo, Japan) and a confocal microscope (Leica, Leica Microsystems Inc, Bannockburn, Ill., USA or Zeiss LSM510, Carl Zeiss, Inc, Thornwood, N.Y., USA).
500 cells were counted from 20 microscopic fields randomly selected at 200 magnification and evaluated for positive responses to each antibody. Positive responses to antibodies were determined after at least three evaluations. […] All data were represented as mean±standard error of the mean (S.E.M) with a statistical significance of p<0.05.

Molecule: O=C1NC(=O)C(c2ccccc2[N+](=O)[O-])=C1Nc1ccc(O)c(Cl)c1 [SB415286, reference compound]
- Positive rate of Crx (30 uM instead of Wnt3a): 53.7(±2.7) %
- Positive rate of Ki67 (30 uM instead of Wnt3a): 13.3(±1.2) %
- Positive rate of Pax6 (30 uM instead of Wnt3a): 89.1(±0.6) %
- Positive rate of Rom (30 uM instead of Wnt3a): 59.5(±0.7) %
- Positive rate of b-opsin (30 uM instead of Wnt3a): 53.7(±2.7) %
- Positive rate of peripherin2 (30 uM instead of Wnt3a): 9.1(±0.6) %
- Positive rate of recoverin (30 uM instead of Wnt3a): 70.0(±0.6) %
- Positive rate of rhodopsin (30 uM instead of Wnt3a): 69.3(±0.5) %

Molecule: [Cl-].[Li+] [LiCl, reference compound]
- Positive rate of recoverin (2.5 mM instead of Wnt3a): 64.1(±2.9) %
- Positive rate of rhodopsin (2.5 mM instead of Wnt3a): 56.2(±1.7) %
- Positive rate of Crx (5 mM instead of Wnt3a): 5.0(±1.7) %
- Positive rate of Ki67 (5 mM instead of Wnt3a): 33.3(±2.2) %
- Positive rate of peripherin2 (5 mM instead of Wnt3a): 1.5(±0.9) %
- Positive rate of recoverin (5 mM instead of Wnt3a): 78.9(±4.4) %
- Positive rate of rhodopsin (5 mM instead of Wnt3a): 68.5(±2.2) %

Molecule: O=C1Nc2cc(Br)ccc2/C1=C1/Nc2ccccc2/C1=N\O [BIO, 6-bromoindirubin-3′-oxime, reference compound]
- Positive rate of Crx (2 uM instead of Wnt3a): 65.8(±1.0) %
- Positive rate of Ki67 (2 uM instead of Wnt3a): 17.2(±0.6) %
- Positive rate of Pax6 (2 uM instead of Wnt3a): 92.8(±1.0) %
- Positive rate of Rom (2 uM instead of Wnt3a): 60.3(±0.9) %
- Positive rate of b-opsin (2 uM instead of Wnt3a): 77.5(±1.8) %
- Positive rate of peripherin2 (2 uM instead of Wnt3a): 33.9(±0.1) %
- Positive rate of recoverin (2 uM instead of Wnt3a): 77.1(±0.8) %
- Positive rate of rhodopsin (2 uM instead of Wnt3a): 71.5(±1.2) %

Molecule: Norrin: recombinant Norrin (R&D Systems), activator of the Wnt pathway, binds to Frizzled4 receptor
- Positive rate of Crx (50 ng/ml instead of Wnt3a): 39.3(±0.8) %
- Positive rate of Ki67 (50 ng/ml instead of Wnt3a): 42.2(±6.8) %
- Positive rate of Rom (50 ng/ml instead of Wnt3a): 69.5(±2.7) %
- Positive rate of b-opsin (50 ng/ml instead of Wnt3a): 71.1(±0.6) %
- Positive rate of peripherin2 (50 ng/ml instead of Wnt3a): 24.9(±4.5) %
- Positive rate of recoverin (50 ng/ml instead of Wnt3a): 85.0(±7.2) %
- Positive rate of rhodopsin (50 ng/ml instead of Wnt3a): 82.9(±7.1) %

Molecule: c1ccc2c(Oc3nc(Nc4ccc(N5CCOCC5)cc4)c4ncn(C5CCCCC5)c4n3)cccc2c1 [purmorphamine, reference compound]
- Positive rate of Crx (1 uM instead of Shh): 71.6(±0.8) %
- Positive rate of Ki67 (1 uM instead of Shh): 24.3(±0.5) %
- Positive rate of peripherin2 (1 uM instead of Shh): 41.5(±1.2) %
- Positive rate of recoverin (1 uM instead of Shh): 76.5(±0.9) %
- Positive rate of rhodopsin (1 uM instead of Shh): 73.5(±1.2) %

B1: Wnt1: recombinant Wnt1 (PeproTech), Wnt signaling pathway activator used instead of Wnt3a (protein, UniProt P04628 28-370, looked up)
Proto-oncogene Wnt-1: ANSSGRWWGIVNVASSTNLLTDSKSLQLVLEPSLQLLSRKQRRLIRQNPGILHSVSGGLQSAVRECKWQFRNRRWNCPTAPGPHLFGKIVNRGCRETAFIFAITSAGVTHSVARSCSEGSIESCTCDYRRRGPGGPDWHWGGCSDNIDFGRLFGREFVDSGEKGRDLRFLMNLHNNEAGRTTVFSEMRQECKCHGMSGSCTVRTCWMRLPTLRAVGDVLRDRFDGASRVLYGNRGSNRASRAELLRLEPEDPAHKPPSPHDLVYFEKSPNFCTYSGRLGTAGTAGRACNSSSPALDGCELLCCGRGHRTRTQRVTERCNCTFHWCCHVSCRNCTHTRVLHECL
- Positive rate of Crx (50 ng/ml instead of Wnt3a): 60.3(±1.3) %
- Positive rate of Ki67 (50 ng/ml instead of Wnt3a): 23.8(±1.2) %
- Positive rate of Rom (50 ng/ml instead of Wnt3a): 55.9(±2.9) %
- Positive rate of b-opsin (50 ng/ml instead of Wnt3a): 61.6(±6.8) %
- Positive rate of peripherin2 (50 ng/ml instead of Wnt3a): 3.8(±2.0) %
- Positive rate of recoverin (50 ng/ml instead of Wnt3a): 70.9(±1.8) %
- Positive rate of rhodopsin (50 ng/ml instead of Wnt3a): 66.2(±5.4) %

B2: Wnt5A: recombinant Wnt5A (R&D Systems), Wnt signaling pathway activator used instead of Wnt3a (protein, UniProt P41221 62-380, looked up)
Protein Wnt-5a: IIGAQPLCSQLAGLSQGQKKLCHLYQDHMQYIGEGAKTGIKECQYQFRHRRWNCSTVDNTSVFGRVMQIGSRETAFTYAVSAAGVVNAMSRACREGELSTCGCSRAARPKDLPRDWLWGGCGDNIDYGYRFAKEFVDARERERIHAKGSYESARILMNLHNNEAGRRTVYNLADVACKCHGVSGSCSLKTCWLQLADFRKVGDALKEKYDSAAAMRLNSRGKLVQVNSRFNSPTTQDLVYIDPSPDYCVRNESTGSLGTQGRLCNKTSEGMDGCELMCCGRGYDQFKTVQTERCHCKFHWCCYVKCKKCTEIVDQFVCK
- Positive rate of Crx (50 ng/ml instead of Wnt3a): 67.3(±1.9) %
- Positive rate of Ki67 (50 ng/ml instead of Wnt3a): 41.3(±3.9) %
- Positive rate of Rom (50 ng/ml instead of Wnt3a): 58.8(±2.7) %
- Positive rate of b-opsin (50 ng/ml instead of Wnt3a): 55.0(±4.4) %
- Positive rate of peripherin2 (50 ng/ml instead of Wnt3a): 20.7(±0.8) %
- Positive rate of recoverin (50 ng/ml instead of Wnt3a): 61.0(±3.2) %
- Positive rate of rhodopsin (50 ng/ml instead of Wnt3a): 59.5(±2.0) %
- Positive rate of peripherin2 (100 ng/ml instead of Wnt3a): 14.2(±2.8) %
- Positive rate of recoverin (100 ng/ml instead of Wnt3a): 61.6(±2.5) %
- Positive rate of rhodopsin (100 ng/ml instead of Wnt3a): 56.1(±1.8) %

B3: Wnt11: recombinant Wnt11 (R&D Systems), Wnt signaling pathway activator used instead of Wnt3a (protein, UniProt O96014 25-354, looked up)
Protein Wnt-11: IKWLALSKTPSALALNQTQHCKQLEGLVSAQVQLCRSNLELMHTVVHAAREVMKACRRAFADMRWNCSSIELAPNYLLDLERGTRESAFVYALSAAAISHAIARACTSGDLPGCSCGPVPGEPPGPGNRWGGCADNLSYGLLMGAKFSDAPMKVKKTGSQANKLMRLHNSEVGRQALRASLEMKCKCHGVSGSCSIRTCWKGLQELQDVAADLKTRYLSATKVVHRPMGTRKHLVPKDLDIRPVKDSELVYLQSSPDFCMKNEKVGSHGTQDRQCNKTSNGSDSCDLMCCGRGYNPYTDRVVERCHCKYHWCCYVTCRRCERTVERYVCK
- Positive rate of Crx (50 ng/ml instead of Wnt3a): 65.9(±5.8) %
- Positive rate of Ki67 (50 ng/ml instead of Wnt3a): 40.1(±5.2) %
- Positive rate of Rom (50 ng/ml instead of Wnt3a): 50.2(±7.4) %
- Positive rate of b-opsin (50 ng/ml instead of Wnt3a): 30.6(±6.2) %
- Positive rate of peripherin2 (50 ng/ml instead of Wnt3a): 0.5(±0.3) %
- Positive rate of recoverin (50 ng/ml instead of Wnt3a): 65.3(±2.7) %
- Positive rate of rhodopsin (50 ng/ml instead of Wnt3a): 51.8(±7.7) %
- Positive rate of peripherin2 (100 ng/ml instead of Wnt3a): 10.7(±2.9) %
- Positive rate of recoverin (100 ng/ml instead of Wnt3a): 61.8(±4.1) %
- Positive rate of rhodopsin (100 ng/ml instead of Wnt3a): 59.1(±5.4) %

From US9200252B2, “Compositions for inducing differentiation into retinal cells from retinal progenitor cells or inducing proliferation of retinal cells comprising Wnt signaling pathway activators” (SNU R&DB Foundation, priority 2009, dated 2015)
